# Source: patent publication US20250206825A1, “COMPOSITION FOR PREVENTING OR TREATING MYOCARDITIS, COMPRISING VLA-4 INHIBITOR” (OSAKA UNIVERSITY, priority 2022, published 2025)
# Legend:
# MRL-Pdcd1^−/− mice = test: AJM300 mixed diet in myocarditis model (survival, echocardiography); assay type: in vivo, mouse
# Method: […] MRL-Pdcd1^−/− mice were divided into two groups: AJM300 (−) group (n=13) not to be administered with the AJM300 and AJM300 (+) group (n=12) to be administered with the AJM300.
# The AJM300 group (+) was administered with a mixed diet containing 1% of AJM300 from 2 weeks of age until death.
# At 28 days of age, 9 mice in the AJM300 (−) group and 10 mice in the AJM300 (+) group were evaluated for the cardiac function by the echocardiography and then euthanized to collect heart and blood samples.
# [1] = test system: cardiac fibroblasts and splenic monocytes; test: Adhesion experiment of monocytes with cardiac fibroblasts in vitro (TNFα stimulation); assay type: cell-based, neonatal rat (fibroblasts), mouse (monocytes); conditions: stimulation with TNFα for 24 hours; monocytes incubated 30 min at 37° C.; In Cell Analyzer 6000
# Method: (§1) For the cardiac fibroblasts, fibroblasts isolated after cell dispersion of a heart harvested from a neonatal rat with Collagenase type 2 (Worthington Biochemical Corporation, LS004176) were cultured in a 96-well plate. For splenic monocytes, a spleen was harvested from a wild-type mouse and homogenized, and then the monocyte fraction was collected by specific gravity separation using Optiprep (Serumwerk Bernburg, 1893). For the adhesion experiment, the cardiac fibroblasts were cultured in the 96-well plate for 48 hours, and then medium was replaced with TNFα+/− and cultured for another 24 hours. The splenic monocytes subjected to fluorescent staining (Hoechst 33342 (DOJINDO LABORATORIES, 341-07901) or Cytored (DOJINDO LABORATORIES, 342-08531)) were added and incubated at 37° C. for 30 min. After washing 6 times with PBS (−) to remove non-adherent monocytes, and then adherent monocytes were counted on In Cell Analyzer 6000 (GE Healthcare Life Sciences).
# (§2) The TNFα (Peprotech, 300-01A) was added to the wells at a final concentration of 5 to 15 ng/ml.
# Vcam-1 = test: Induction of Vcam-1 by TNFα in cardiac fibroblasts (Western blotting); assay type: cell-based, rat; conditions: 12 hours and 24 hours after addition of TNFα versus 0 hour, TNFα 5 to 15 ng/ml
# Method: as §1, §2
# Induction of the Vcam-1 by the TNFα was determined by Western blotting. Anti-Vcam1 antibody EPR5047 (Abcam, ab134047) was used as a primary antibody for the Western blotting. An HRP-conjugated anti-Rabbit antibody was used for detection, and Chemi-Lumi One L (Nacalai tesque, 07880-70) was used as a luminescence reagent. […]
# [2] = 1% AJM300 mixed diet, 28 days of age, versus AJM300 (−) group, t-test p=0.0231
Molecule,heart rate (echocardiography) (MRL-Pdcd1^−/− mice; [2]),left ventricular contractile performance: % Fractional Shortening (MRL-Pdcd1^−/− mice; [2]),"survival time (Kaplan-Meier) versus AJM300 (−) group (MRL-Pdcd1^−/− mice; mixed diet containing 1% of AJM300 from 2 weeks of age until death, Log-rank test p=0.0022)",adhesion between the cardiac fibroblasts and the monocytes [1],expression of the Vcam-1 (Western blotting) (Vcam-1)
"COC(=O)[C@H](Cc1ccc(-n2c(=O)c3cc(N(C)C)ccc3n(C)c2=O)cc1)NC(=O)c1c(Cl)cccc1Cl [AJM300, carotegrast methyl]",significantly ameliorated bradycardia,significantly improved left ventricular contractile performance,significantly prolonged,–,–
TNFα,–,–,–,strengthened,increased more
